Experimental data from the NIST ThermoML archive (doi:10.1021/je034048e).

Legend:
[1] = Molar enthalpy of transition or fusion; conditions: Crystal; Adiabatic calorimetry
[2] = for molar entropy: 101.33 kPa, Small (less than 1 g) adiabatic calorimetry

CCCCCCCC/C=C/CCCCCCCC(=O)OCC(COC(=O)CCCCCCC/C=C/CCCCCCCC)OC(=O)CCCCCCC/C=C/CCCCCCCC [trielaidin]
Conditions	Molar enthalpy of transition or fusion [kJ/mol]
[1]	157

[2]
Conditions	Triple point temperature [K]	molar entropy [J/K/mol]
20 K, Crystal	–	26.56
20 K, Metastable crystal	–	61.98
25 K, Crystal	–	44.27
25 K, Metastable crystal	–	88.54
30 K, Crystal	–	70.83
30 K, Metastable crystal	–	115.11
35 K, Crystal	–	97.4
35 K, Metastable crystal	–	141.67
40 K, Crystal	–	132.81
40 K, Metastable crystal	–	177.09
45 K, Crystal	–	168.23
45 K, Metastable crystal	–	212.5
50 K, Crystal	–	194.8
50 K, Metastable crystal	–	239.07
55 K, Crystal	–	230.21
55 K, Metastable crystal	–	274.48
60 K, Crystal	–	265.63
60 K, Metastable crystal	–	309.9
65 K, Crystal	–	301.05
65 K, Metastable crystal	–	345.32
70 K, Crystal	–	327.61
70 K, Metastable crystal	–	380.74
75 K, Crystal	–	363.03
75 K, Metastable crystal	–	416.15
80 K, Crystal	–	398.44
80 K, Metastable crystal	–	451.57
85 K, Crystal	–	433.86
85 K, Metastable crystal	–	486.99
90 K, Crystal	–	460.42
90 K, Metastable crystal	–	513.55
95 K, Crystal	–	495.84
95 K, Metastable crystal	–	548.97
100 K, Crystal	–	531.26
100 K, Metastable crystal	–	584.39
105 K, Crystal	–	557.82
105 K, Metastable crystal	–	619.8
110 K, Crystal	–	593.24
110 K, Metastable crystal	–	646.37
120 K, Crystal	–	646.37
120 K, Metastable crystal	–	708.35
130 K, Crystal	–	708.35
130 K, Metastable crystal	–	770.33
140 K, Crystal	–	770.33
140 K, Metastable crystal	–	832.31
150 K, Crystal	–	823.45
150 K, Metastable crystal	–	894.29
160 K, Crystal	–	876.58
160 K, Metastable crystal	–	947.41
170 K, Crystal	–	929.7
170 K, Metastable crystal	–	1009.4
180 K, Crystal	–	982.83
180 K, Metastable crystal	–	1062.5
190 K, Crystal	–	1036
190 K, Metastable crystal	–	1124.5
200 K, Crystal	–	1089.1
200 K, Metastable crystal	–	1177.6
210 K, Crystal	–	1142.2
210 K, Metastable crystal	–	1239.6
220 K, Crystal	–	1186.5
220 K, Metastable crystal	–	1301.6
230 K, Crystal	–	1239.6
230 K, Metastable crystal	–	1363.6
240 K, Crystal	–	1292.7
240 K, Metastable crystal	–	1425.5
250 K, Crystal	–	1337
250 K, Metastable crystal	–	1487.5
260 K, Crystal	–	1390.1
260 K, Metastable crystal	–	1549.5
270 K, Crystal	–	1443.3
270 K, Metastable crystal	–	1611.5
280 K, Crystal	–	1496.4
280 K, Metastable crystal	–	1673.5
288 K, Crystal	–	1531.8
288 K, Metastable crystal	–	1726.6
290 K, Crystal	–	1549.5
298.15 K, Crystal	–	1593.8
300 K, Crystal	–	1602.6
310 K, Crystal	–	1655.8
314.83 K, Crystal	–	1673.5
314.83 K, Liquid	–	2204.7
320 K, Liquid	–	2213.6
330 K, Liquid	–	2275.6
Crystal, Adiabatic calorimetry	314.83	–
